Legend:
Gem031 = ex vivo spheroids of an HRD-negative high-grade serous ovarian cancer; assay: cell viability relative to untreated control (ex vivo patient spheroids); higher = less cytotoxic; conditions: 72 h
Experimental: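 Ex vivo 3D spheroid cultures from dissociated tumours of HGSOC patients (DET3CT platform) were treated for 72 h with dose matrices of carboplatin combined with birinapant or vorinostat (nM). Live (TMRM) and dead (POPO-1) cells were imaged and viability was expressed as % of untreated control.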

KURAMOCHI = assay: cancer cell viability relative to untreated control; higher = less cytotoxic; conditions: 72 h
Experimental: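 KURAMOCHI or OVCAR8 cells were grown in monoculture or in co-culture with WI38 or patient-derived 030F fibroblasts and treated for 72 h with a dose matrix of carboplatin combined with birinapant or vorinostat (doses in nM). Cancer cell viability was measured by CK8/18 immunofluorescence imaging and expressed as % of untreated control, given as mean with SD.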

O=C(O)C1(C(=O)O)CCC1.[NH2-].[NH2-].[Pt+2] [Carboplatin] + CC[C@H](NC(=O)[C@H](C)NC)C(=O)N1C[C@@H](O)C[C@H]1Cc1c(-c2[nH]c3cc(F)ccc3c2C[C@@H]2C[C@H](O)CN2C(=O)[C@H](CC)NC(=O)[C@H](C)NC)[nH]c2cc(F)ccc12 [Birinapant]
cell viability [%], Gem031
Conditions	partner drug concentration 0 nM	partner drug concentration 0.1 nM	partner drug concentration 1 nM	partner drug concentration 10 nM	partner drug concentration 100 nM	partner drug concentration 1000 nM
carboplatin concentration 10 nM	–	93	91.2	96	55.3	25.3
carboplatin concentration 100 nM	–	98.1	92.1	88.6	61.2	26.3
carboplatin concentration 1000 nM	–	98.6	91.8	93.6	56.8	24.8
carboplatin concentration 10000 nM	79.2	87	97.5	77.6	46.3	15.5
carboplatin concentration 100000 nM	26.3	26.1	27.6	22.9	11.4	3.6

cancer cell viability [%], KURAMOCHI
Conditions	partner drug concentration 0 nM	partner drug concentration 0.1 nM	partner drug concentration 1 nM	partner drug concentration 10 nM	partner drug concentration 100 nM	partner drug concentration 1000 nM
carboplatin concentration 10 nM, co-cultured fibroblast: 030F	95.1	97.5	93.4	82.9	81.5	84.3
carboplatin concentration 10 nM, co-cultured fibroblast: WI38	93.7	94.4	87.7	85	80.4	77.7
carboplatin concentration 10 nM, co-cultured fibroblast: none (monoculture)	101	93.7	90.3	79.5	73.8	67.6
carboplatin concentration 100 nM, co-cultured fibroblast: 030F	95.5	92	94.7	95.6	84.5	85.6
carboplatin concentration 100 nM, co-cultured fibroblast: WI38	91.6	88.5	90.5	98.4	86.1	82.2
carboplatin concentration 100 nM, co-cultured fibroblast: none (monoculture)	95.7	89.2	91.7	97.3	66.7	67.3
carboplatin concentration 1000 nM, co-cultured fibroblast: 030F	91.6	92.2	100	91.7	82.9	87.1
carboplatin concentration 1000 nM, co-cultured fibroblast: WI38	94.4	99.2	98.2	97.8	88.5	77.5
carboplatin concentration 1000 nM, co-cultured fibroblast: none (monoculture)	102	95	90.7	90.3	74.3	61
carboplatin concentration 1e+05 nM, co-cultured fibroblast: 030F	44.4	50.4	60.3	52.9	40.4	54.9
carboplatin concentration 1e+05 nM, co-cultured fibroblast: WI38	31.1	41.9	48	43.7	36.4	44.2
carboplatin concentration 1e+05 nM, co-cultured fibroblast: none (monoculture)	26.6	33.6	38.4	37.9	18.6	24.4
carboplatin concentration 10000 nM, co-cultured fibroblast: 030F	51.7	80.8	88.2	88.8	72.4	71.7
carboplatin concentration 10000 nM, co-cultured fibroblast: WI38	40.7	80	83.2	91.4	74.1	69.9
carboplatin concentration 10000 nM, co-cultured fibroblast: none (monoculture)	23.9	95.4	72.3	84.6	57.4	51.8
